Laboratory results from PubChem BioAssay AID248 (DTP/NCI, 2004).
“And” between values parts separate entries of the source, which are not always exact repeats. Equal values may be shown once. Toxic doses and inconclusive results are not listed.

Test system: L1210 leukemia ip in BDF1 mice, survival T/C
Assay: NCI In Vivo Anticancer Drug Screen. Data for tumor model L1210 Leukemia (intraperitoneal) in B6D2F1 (BDF1) mice
Settings: endpoint: mean survival time, higher = longer survival
In short: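 Tumor cells were implanted, animals were treated, and survival was followed. The result divides the treated measurement by the vehicle-control measurement.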

[1] = dose: 100.0 mg/kg/injection, schedule: Q04DX003 (ip), vehicle: saline
[2] = dose: 200.0 mg/kg/injection, schedule: Q04DX003 (ip), vehicle: saline
[3] = dose: 400.0 mg/kg/injection, schedule: Q04DX003 (ip), vehicle: saline
[4] = dose: 100.0 mg/kg/injection, schedule: Q01DX001 (ip), vehicle: carboxymethylcellulose (CMC)
[5] = dose: 100.0 mg/kg/injection, schedule: Q04DX002 (ip), vehicle: Klucel (hydroxypropylcellulose) (HPC)
[6] = dose: 200.0 mg/kg/injection, schedule: Q01DX001 (ip), vehicle: carboxymethylcellulose (CMC)
[7] = dose: 200.0 mg/kg/injection, schedule: Q04DX002 (ip), vehicle: Klucel (hydroxypropylcellulose) (HPC)
[8] = dose: 400.0 mg/kg/injection, schedule: Q01DX001 (ip), vehicle: carboxymethylcellulose (CMC)
[9] = dose: 400.0 mg/kg/injection, schedule: Q04DX002 (ip), vehicle: Klucel (hydroxypropylcellulose) (HPC)

With `[N-]=[N+]=C1C(=O)NC(=O)N2C3CC(O)C(COC12)O3` (stereo not given) the T/C (dose: 32.0 mg/kg/injection, schedule: Q01DX Z (oral), vehicle: saline) was 110 % of control, the T/C (dose: 63.0 mg/kg/injection, schedule: Q01DX Z (oral), vehicle: saline) was 105 % of control and the T/C (dose: 100.0 mg/kg/injection, schedule: Q01DX009 (ip), vehicle: saline) was 111 % of control. The T/C [1] was 102 % of control, the T/C (dose: 125.0 mg/kg/injection, schedule: Q01DX Z (oral), vehicle: saline) was 101 % of control and the T/C (dose: 133.0 mg/kg/injection, schedule: Q01DX006 (iv), vehicle: saline) was 106 % of control. For the same compound, the T/C (dose: 133.0 mg/kg/injection, schedule: Q01DX Z (ip), vehicle: carboxymethylcellulose (CMC)) was 104 % of control, the T/C (dose: 133.0 mg/kg/injection, schedule: Q01DX Z (ip), vehicle: saline) was 113 % of control and 119 % of control and the T/C (dose: 200.0 mg/kg/injection, schedule: Q01DX006 (iv), vehicle: saline) was 110 % of control. The T/C (dose: 200.0 mg/kg/injection, schedule: Q01DX009 (ip), vehicle: saline) was 114 % of control, the T/C (dose: 200.0 mg/kg/injection, schedule: Q01DX Z (ip), vehicle: carboxymethylcellulose (CMC)) was 105 % of control and the T/C (dose: 200.0 mg/kg/injection, schedule: Q01DX Z (ip), vehicle: saline) was 117 % of control. For the same compound, the T/C [2] was 107 % of control, the T/C (dose: 250.0 mg/kg/injection, schedule: Q01DX Z (oral), vehicle: carboxymethylcellulose (CMC)) was 108 % of control and the T/C (dose: 250.0 mg/kg/injection, schedule: Q01DX Z (oral), vehicle: saline) was 105 % of control and 107 % of control. For the same compound, the T/C (dose: 300.0 mg/kg/injection, schedule: Q01DX006 (iv), vehicle: saline) was 118 % of control, the T/C (dose: 300.0 mg/kg/injection, schedule: Q01DX Z (ip), vehicle: saline) was 150 % of control and the T/C [3] was 107 % of control. The T/C (dose: 450.0 mg/kg/injection, schedule: Q01DX006 (iv), vehicle: saline) was 116 % of control, the T/C (dose: 500.0 mg/kg/injection, schedule: Q01DX Z (oral), vehicle: carboxymethylcellulose (CMC)) was 98 % of control and the T/C (dose: 500.0 mg/kg/injection, schedule: Q01DX Z (oral), vehicle: saline) was 107 % of control and 117 % of control. The T/C (dose: 675.0 mg/kg/injection, schedule: Q01DX006 (iv), vehicle: saline) was 112 % of control, the T/C (dose: 675.0 mg/kg/injection, schedule: Q01DX Z (ip), vehicle: saline) was 111 % of control and the T/C (dose: 800.0 mg/kg/injection, schedule: Q01DX006 (iv), vehicle: saline) was 102 % of control. The T/C (dose: 1000.0 mg/kg/injection, schedule: Q01DX006 (iv), vehicle: saline) was 102 % of control, the T/C (dose: 1000.0 mg/kg/injection, schedule: Q01DX Z (oral), vehicle: carboxymethylcellulose (CMC)) was 100 % of control and the T/C (dose: 2000.0 mg/kg/injection, schedule: Q01DX Z (oral), vehicle: carboxymethylcellulose (CMC)) was 107 % of control.

`Cc1ccc(NCC(=O)NN)cc1C` was tested, and the T/C [4] was 106 % of control, the T/C (dose: 100.0 mg/kg/injection, schedule: Q01DX009 (ip), vehicle: carboxymethylcellulose (CMC)) was 106 % of control and 91 % of control and the T/C [5] was 91 % of control. The T/C (dose: 100.0 mg/kg/injection, schedule: Q04DX002 (ip), vehicle: carboxymethylcellulose (CMC)) was 115 % of control, the T/C (dose: 100.0 mg/kg/injection, schedule: Q04DX003 (ip), vehicle: carboxymethylcellulose (CMC)) was 101 % of control and the T/C [6] was 94 % of control. For the same compound, the T/C (dose: 200.0 mg/kg/injection, schedule: Q01DX009 (ip), vehicle: carboxymethylcellulose (CMC)) was 105 % of control and 109 % of control, the T/C [7] was 98 % of control and the T/C (dose: 200.0 mg/kg/injection, schedule: Q04DX002 (ip), vehicle: carboxymethylcellulose (CMC)) was 94 % of control. The T/C (dose: 200.0 mg/kg/injection, schedule: Q04DX003 (ip), vehicle: carboxymethylcellulose (CMC)) was 89 % of control, the T/C [8] was 96 % of control and the T/C (dose: 400.0 mg/kg/injection, schedule: Q01DX009 (ip), vehicle: carboxymethylcellulose (CMC)) was 95 % of control and 100 % of control. The T/C [9] was 113 % of control, the T/C (dose: 400.0 mg/kg/injection, schedule: Q04DX002 (ip), vehicle: carboxymethylcellulose (CMC)) was 97 % of control and the T/C (dose: 400.0 mg/kg/injection, schedule: Q04DX003 (ip), vehicle: carboxymethylcellulose (CMC)) was 101 % of control.

`CCCCCCCCCCCCCCCCS(=O)(=O)N/N=C/c1ccccc1O` was tested, and the T/C [4] was 95 % of control and the T/C [6] was 98 % of control.

In the case of `O=C(NNC(=O)NC1OCC(O)C(O)C1O)Nc1ccccc1` (stereo not given), the T/C (dose: 100.0 mg/kg/injection, schedule: Q01DX009 (ip), vehicle: saline with Tween-80) is reported as 97 % of control, the T/C (dose: 200.0 mg/kg/injection, schedule: Q01DX009 (ip), vehicle: saline with Tween-80) is reported as 100 % of control and the T/C (dose: 400.0 mg/kg/injection, schedule: Q01DX009 (ip), vehicle: saline with Tween-80) is reported as 97 % of control.

In the case of `CC(C)(C)OC(=O)NN=C1CCC(C(C)(C)C)CC1` (stereo not given), the T/C (dose: 100.0 mg/kg/injection, schedule: Q04DX003 (ip), vehicle: acetone) is reported as 98 % of control, the T/C (dose: 200.0 mg/kg/injection, schedule: Q04DX003 (ip), vehicle: acetone) is reported as 96 % of control and the T/C (dose: 400.0 mg/kg/injection, schedule: Q04DX003 (ip), vehicle: acetone) is reported as 93 % of control.

`Cc1nc2c(Cl)cc(Cl)cc2s1` was tested, and the T/C (dose: 100.0 mg/kg/injection, schedule: Q01DX001 (ip), vehicle: acetone) was 100 % of control, the T/C [1] was 95 % of control and the T/C (dose: 200.0 mg/kg/injection, schedule: Q01DX001 (ip), vehicle: acetone) was 106 % of control. For the same compound, the T/C [2] was 90 % of control, the T/C (dose: 400.0 mg/kg/injection, schedule: Q01DX001 (ip), vehicle: acetone) was 102 % of control and the T/C [3] was 92 % of control.

With `COc1ccc(C(=O)N(C)c2ccccc2)cc1` the T/C (dose: 100.0 mg/kg/injection, schedule: Q04DX003 (ip), vehicle: Klucel (hydroxypropylcellulose) (HPC)) was 94 % of control, the T/C (dose: 200.0 mg/kg/injection, schedule: Q04DX003 (ip), vehicle: Klucel (hydroxypropylcellulose) (HPC)) was 89 % of control and the T/C (dose: 400.0 mg/kg/injection, schedule: Q04DX003 (ip), vehicle: Klucel (hydroxypropylcellulose) (HPC)) was 93 % of control.

With `NC(=O)c1cc(Cl)ccn1` the T/C (dose: 100.0 mg/kg/injection, schedule: Q04DX002 (ip), vehicle: saline with Tween-80) was 101 % of control and the T/C (dose: 200.0 mg/kg/injection, schedule: Q04DX002 (ip), vehicle: saline with Tween-80) was 99 % of control.

`N#CCCSCCSCCC#N` was tested, and the T/C (dose: 100.0 mg/kg/injection, schedule: Q01DX009 (ip), vehicle: Klucel (hydroxypropylcellulose) (HPC)) was 95 % of control, the T/C (dose: 200.0 mg/kg/injection, schedule: Q01DX009 (ip), vehicle: Klucel (hydroxypropylcellulose) (HPC)) was 97 % of control and the T/C (dose: 400.0 mg/kg/injection, schedule: Q01DX009 (ip), vehicle: Klucel (hydroxypropylcellulose) (HPC)) was 101 % of control.

With `Cc1cc(C)c(F)c(-c2c(N)c(C)cc(C)c2F)c1N` the T/C (dose: 50.0 mg/kg/injection, schedule: Q01DX001 (ip), vehicle: Klucel (hydroxypropylcellulose) (HPC)) was 106 % of control, the T/C (dose: 100.0 mg/kg/injection, schedule: Q01DX001 (ip), vehicle: Klucel (hydroxypropylcellulose) (HPC)) was 101 % of control and the T/C (dose: 200.0 mg/kg/injection, schedule: Q01DX001 (ip), vehicle: Klucel (hydroxypropylcellulose) (HPC)) was 96 % of control.

`CN(N)P(=O)(c1ccccc1)N(C)N` was tested, and the T/C (dose: 25.0 mg/kg/injection, schedule: Q01DX009 (ip), vehicle: saline) was 103 % of control, the T/C (dose: 25.0 mg/kg/injection, schedule: Q04DX003 (ip), vehicle: saline) was 101 % of control and the T/C (dose: 50.0 mg/kg/injection, schedule: Q01DX009 (ip), vehicle: saline) was 100 % of control. For the same compound, the T/C (dose: 50.0 mg/kg/injection, schedule: Q04DX003 (ip), vehicle: saline) was 98 % of control and the T/C [1] was 104 % of control and 105 % of control.

With `O=C(O)c1ccc(C(=O)Nc2cccc3ccccc23)c(C(=O)O)c1` the T/C [5] was 106 % of control, the T/C [7] was 103 % of control and the T/C [9] was 103 % of control.

`CCCCOC(=O)c1ccc(OC(=O)Nc2ccc(C)cc2[N+](=O)[O-])cc1` was tested, and the T/C (dose: 50.0 mg/kg/injection, schedule: Q01DX009 (ip), vehicle: saline + alcohol) was 97 % of control, the T/C (dose: 100.0 mg/kg/injection, schedule: Q01DX009 (ip), vehicle: saline + alcohol) was 123 % of control and the T/C (dose: 200.0 mg/kg/injection, schedule: Q01DX009 (ip), vehicle: saline + alcohol) was 103 % of control.

With `O=NN1C(=O)N[C@@H]2[C@H]1CS[C@@H]2CCCCC(=O)O` the T/C (dose: 50.0 mg/kg/injection, schedule: Q01DX001 (ip), vehicle: carboxymethylcellulose (CMC)) was 101 % of control, the T/C [4] was 96 % of control and the T/C [6] was 101 % of control. For the same compound, the T/C (dose: 300.0 mg/kg/injection, schedule: Q01DX001 (ip), vehicle: carboxymethylcellulose (CMC)) was 95 % of control, the T/C [8] was 95 % of control and the T/C (dose: 600.0 mg/kg/injection, schedule: Q01DX001 (ip), vehicle: carboxymethylcellulose (CMC)) was 87 % of control. For the same compound, the T/C (dose: 800.0 mg/kg/injection, schedule: Q01DX001 (ip), vehicle: carboxymethylcellulose (CMC)) was 90 % of control.
